Measured values reported in ChEMBL document CHEMBL5154726, “Identification of triazolopyridine derivatives as a new class of AhR agonists and evaluation of anti-psoriasis effect in a mouse model” (Eur J Med Chem, 2022).
Values after ≈ are worked out from the molar mass of the structure shown.

Assays:
[1] = target: T1, Aryl hydrocarbon receptor (Homo sapiens, UniProt P35869); assay: Agonist activity at AhR in human recombinant HepG2-Lucia AhR cell incubated for 24 hrs by luciferase reporter gene assay; type: cell-based
T1 sequence (P35869 whole entry): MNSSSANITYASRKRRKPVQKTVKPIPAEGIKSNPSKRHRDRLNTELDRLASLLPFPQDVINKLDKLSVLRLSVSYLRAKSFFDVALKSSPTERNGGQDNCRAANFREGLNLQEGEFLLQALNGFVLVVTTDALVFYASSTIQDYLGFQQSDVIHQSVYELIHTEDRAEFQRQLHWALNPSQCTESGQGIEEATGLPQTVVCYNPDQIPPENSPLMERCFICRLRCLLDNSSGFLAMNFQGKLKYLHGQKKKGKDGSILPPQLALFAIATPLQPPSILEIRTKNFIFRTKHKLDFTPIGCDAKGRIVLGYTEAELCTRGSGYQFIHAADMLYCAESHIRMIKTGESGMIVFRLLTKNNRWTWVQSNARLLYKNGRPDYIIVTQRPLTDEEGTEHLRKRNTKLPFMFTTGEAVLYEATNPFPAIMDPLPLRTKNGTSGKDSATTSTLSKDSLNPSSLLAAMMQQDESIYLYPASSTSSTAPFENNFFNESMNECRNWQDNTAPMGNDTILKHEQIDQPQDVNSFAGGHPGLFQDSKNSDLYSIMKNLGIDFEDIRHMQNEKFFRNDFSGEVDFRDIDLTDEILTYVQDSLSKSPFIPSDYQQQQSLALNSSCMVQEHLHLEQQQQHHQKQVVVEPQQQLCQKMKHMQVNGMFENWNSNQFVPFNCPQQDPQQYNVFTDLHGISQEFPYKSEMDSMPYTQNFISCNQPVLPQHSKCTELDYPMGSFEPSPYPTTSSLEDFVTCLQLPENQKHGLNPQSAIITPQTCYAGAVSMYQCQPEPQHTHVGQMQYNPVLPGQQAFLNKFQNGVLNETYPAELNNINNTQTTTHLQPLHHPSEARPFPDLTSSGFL

[2] = Induction of apoptosis in human CD4+ve Th cells; type: toxicity, cell-based
[3] = Apparent permeability in MDCK cells at 50 uM incubated for 90 mins by LC/MS analysis; type: ADME, cell-based, Canis lupus familiaris; conditions: dog
[4] = Efflux ratio of apparent permeability in MDCK cells; type: ADME, cell-based, Canis lupus familiaris; conditions: dog
[5] = Solubility of the compound incubated for 48 hrs under shaking condition by LC/MS analysis; type: physicochemical
[6] = n-Octanol/water partition coefficient, logD of the compound at 1 mg incubated for 48 hrs under shaking condition by LC/MS analysis; type: physicochemical

| EC50 [1] [µM] | Structure (SMILES) | other results |
| --- | --- | --- |
| 0.077 | N#Cc1ccc2nc(-c3ccc(Br)cc3)[n+]([O-])n2c1 | – |
| 0.842 | Cc1ccc2nc(-c3ccc(Br)cc3)[n+]([O-])n2c1 | – |
| 4.66 | [O-][n+]1c(-c2ccncc2)nc2ccccn21 | – |
| > 10 | Brc1ccc(-c2nc3ccc(-c4ccccc4)cn3n2)cc1 | – |
| 0.00044 | FC(F)(F)c1ccc(-c2nc3ccc(Br)cn3n2)cc1 | – |
| 0.00034 | [O-][n+]1c(-c2ccc(Br)cc2)nc2ccc(Cl)cn21 | – |
| 0.0096 | Brc1cccc(-c2nc3ccc(Br)cn3n2)c1 | – |
| 0.658 | Fc1ccc2nc(-c3ccc(Br)cc3)nn2c1 | – |
| > 10 | COC(=O)c1ccc(-c2nc3ccccn3[n+]2[O-])cc1 | – |
| 0.205 | [O-][n+]1c(-c2ccc(Br)cc2)nc2cccc(Br)n21 | – |
| 0.023 | N#Cc1ccc2nc(-c3ccc(Br)cc3)nn2c1 | – |
| 0.172 | Brc1ccc(-c2nc3c(Br)cccn3n2)cc1 | – |
| > 10 | Brc1ccc(-c2nc3cc4ccccc4cn3n2)cc1 | – |
| 0.759 | [O-][n+]1c(-c2ccc(Br)cc2)nc2ccc(C(F)(F)F)cn21 | – |
| 3.33 | [O-][n+]1c(-c2ccc(Cl)cc2)nc2ccccn21 | – |
| 0.00083 | Clc1ccc(-c2nc3ccc(Br)cn3n2)cc1 | – |
| 1.89 | Cc1ccc(-c2nc3ccc(Br)cn3n2)cc1 | – |
| 0.083 | [O-][n+]1c(-c2ccc(Br)cc2)nc2cc(F)ccn21 | – |
| 0.374 | [O-][n+]1c(-c2ccc(Br)cc2)nc2c(Br)cccn21 | – |

| EC50 [1] [µM] | Structure (SMILES) | other results |
| --- | --- | --- |
| 2.43 | Brc1ccc2nc(-c3ccccc3Br)nn2c1 | – |
| > 10 | Cc1ccc2nc(-c3ccc(Br)cc3)nn2c1 | – |
| > 10 | [O-][n+]1c(-c2ccc3ccccc3c2)nc2ccccn21 | – |
| – | CC(C)c1c(O)cc(/C=C/c2ccccc2)cc1O [TAPINAROF] | IC50 [2]: 5.2 µM |
| 0.156 | Clc1ccc2nc(-c3ccc(Br)cc3)nn2c1 | – |
| 1.19 | Fc1ccc(-c2nc3ccc(Br)cn3n2)cc1 | – |
| > 10 | [O-][n+]1c(-c2ccc(Br)nc2)nc2ccccn21 | – |
| > 10 | [O-][n+]1c(-c2ccc(-c3ccc(Cl)cc3)o2)nc2ccccn21 | – |
| > 10 | [O-][n+]1c(-c2cccnc2)nc2ccccn21 | – |
| 2.5 | [O-][n+]1c(-c2ccc(Br)cc2)nc2ccccn21 | – |
| 0.271 | [O-][n+]1c(-c2ccc(Br)cc2)nc2cc(Cl)ccn21 | – |
| > 10 | [O-][n+]1c(-c2ccc(F)cc2)nc2ccccn21 | – |
| 0.00027 | [O-][n+]1c(-c2ccc(Br)cc2)nc2ccc(Br)cn21 | Papp at 1.5 h, 50 µM [3]: 1.43 ×10⁻⁶ cm/s; efflux ratio [4]: 6.2; solubility thermodynamic at 48 h [5]: 2.24 µg/mL (≈ 6.07 µM); logD at 48 h [6]: 2.59 |
| 0.062 | [O-][n+]1c(-c2ccc(Br)cc2)nc2cc(Br)ccn21 | – |
| > 10 | Brc1ccc2nc(-c3ccccc3)nn2c1 | – |
| 1.09 | [O-][n+]1c(-c2ccc(Br)cc2)nc2ccc(F)cn21 | – |
| 0.625 | Brc1ccc(-c2nc3cccc(Br)n3n2)cc1 | – |
| 0.625 | Brc1ccc(-c2nc3cc(Br)ccn3n2)cc1 | – |
| > 10 | COc1ccc(-c2nc3ccccn3[n+]2[O-])cc1 | – |
